Data on 15 compounds can be found in patent US20220177508A1, “C10-Cyclic Substituted 13-Membered Macrolides and Uses Thereof” (Zikani Therapeutics, Inc., priority 2018, published 2022).

Type in all cases: cell-based
Assay [1] has as its system S. aureus MP-12. The experiment in a line: Broth dilution MIC determination (CLSI), S. aureus MP-12. To be noted: Staphylococcus aureus, MP12; strain MP-12, broth dilution. On the technique in general: Dilution methods test growth across graded concentrations, often in twofold steps.
Assay [2] has as its system E. coli MP-4. The assay is described as follows: Broth dilution MIC determination (CLSI), E. coli MP-4. Particulars: Escherichia coli, MP4; strain MP-4, broth dilution; read-out: MIC E. coli MP-4.
For assay [3], the system named is K. pneumoniae MP-648. The experiment in a line: Broth dilution MIC determination (CLSI), K. pneumoniae MP-648. Particulars: Klebsiella pneumoniae, MP648; strain MP-648, broth dilution.
Assay [4] has as its system P. aeruginosa MP-3. The experiment in a line: Broth dilution MIC determination (CLSI), P. aeruginosa MP-3. To be noted: Pseudomonas aeruginosa, MP3; strain MP-3, broth dilution.
Assay [5] deals with A. baumannii MP-15. The assay is described as follows: Broth dilution MIC determination (CLSI), A. baumannii MP-15. To be noted: Acinetobacter baumannii, MP15; strain MP-15, broth dilution; read-out: MIC A. baumanii MP-15.
The subject of assay [6] is K. pneumoniae MP-546. The experiment in a line: Broth dilution MIC determination (CLSI), K. pneumoniae MP-546. To be noted: Klebsiella pneumoniae, MP546; strain MP-546, broth dilution.

Molecules are shown by their SMILES. Values after ≈ are worked out from the molar mass of the structure shown.

Usually MIC stands for the least concentration at which growth counts as inhibited. In the case of `CO[C@]1(C)C[C@@H](C)CN(C)[C@@H](C2CCN(C[C@@H]3COC(=O)N3C)CC2)CO[C@@H](O)C(C)(C)C(=O)[C@H](C)[C@H]1O[C@@H]1O[C@H](C)C[C@H](N(C)C)[C@H]1O` [Compound 202], the MIC in assay [1] is > 32 µg/mL; in assay [2], 4 to 32 µg/mL (≈ 5.72 to 45.8 µM); in assay [3], > 32 µg/mL; in assay [4], > 32 µg/mL; in assay [5] it was > 32 µg/mL.
Consider `CO[C@]1(C)C[C@@H](C)CN(C)[C@H](C2CN(C(=O)CCN(C)C)C2)COC(=O)C(C)(C)C(=O)[C@H](C)[C@H]1O[C@@H]1O[C@H](C)C[C@H](N(C)C)[C@H]1O` [Compound 50, (3R,6R,8R,9R,10R)-9-(((2S,3R,4S,6R)-4-(dimethylamino)-3-hydroxy-6-methyltetrahydro-2H-pyran-2-yl)oxy)-3-(1-(3-(dimethylamino)propanoyl)azetidin-3-yl)-8-methoxy-4,6,8,10,12,12-hexamethyl-1-oxa-4-azacyclotridecane-11,13-dione], for which the MIC in assay [1] is 4 to 32 µg/mL (≈ 6.11 to 48.9 µM); in assay [2], 4 to 32 µg/mL (≈ 6.11 to 48.9 µM); in assay [6], 4 to 32 µg/mL (≈ 6.11 to 48.9 µM); in assay [3], 4 to 32 µg/mL (≈ 6.11 to 48.9 µM); in assay [4], > 32 µg/mL; in assay [5], > 32 µg/mL.
Take `CO[C@]1(C)C[C@@H](C)CN(C)[C@H](C2CN(C(=O)CCCN(C)CC(C)C)C2)COC(=O)C(C)(C)C(=O)[C@H](C)[C@H]1O[C@@H]1O[C@H](C)C[C@H](N(C)C)[C@H]1O` [Compound 178, (3R,6R,8R,9R,10R)-9-(((2S,3R,4S,6R)-4-(dimethylamino)-3-hydroxy-6-methyltetrahydro-2H-pyran-2-yl)oxy)-3-(1-(4-(isobutyl(methyl)amino)butanoyl)azetidin-3-yl)-8-methoxy-4,6,8,10,12,12-hexamethyl-1-oxa-4-azacyclotridecane-11,13-dione]: the MIC is > 32 µg/mL in assay [1]; < 4 µg/mL in assay [2]; 4 to 32 µg/mL (≈ 5.63 to 45 µM) in assay [6]; 4 to 32 µg/mL (≈ 5.63 to 45 µM) in assay [3]; > 32 µg/mL in assay [4]; > 32 µg/mL in assay [5].
Take `CO[C@]1(C)C[C@@H](C)CN(C)[C@H](C2CN(Cc3cnccn3)C2)COC(=O)C(C)(C)C(=O)[C@H](C)[C@H]1O[C@@H]1O[C@H](C)C[C@H](N(C)C)[C@H]1O` [Compound 55, (3R,6R,8R,9R,10R)-9-(((2S,3R,4S,6R)-4-(dimethylamino)-3-hydroxy-6-methyltetrahydro-2H-pyran-2-yl)oxy)-8-methoxy-4,6,8,10,12,12-hexamethyl-3-(1-(pyrazin-2-ylmethyl)azetidin-3-yl)-1-oxa-4-azacyclotridecane-11,13-dione]: the MIC in assay [1] is 4 to 32 µg/mL (≈ 6.17 to 49.4 µM); in assay [2] it was 4 to 32 µg/mL (≈ 6.17 to 49.4 µM); in assay [6] it was 4 to 32 µg/mL (≈ 6.17 to 49.4 µM); in assay [3] it was > 32 µg/mL; in assay [4], > 32 µg/mL; in assay [5], > 32 µg/mL.
Take `CO[C@]1(C)C[C@@H](C)CN(C)[C@H](C2CN(Cc3cccnc3)C2)COC(=O)C(C)(C)C(=O)[C@H](C)[C@H]1O[C@@H]1O[C@H](C)C[C@H](N(C)C)[C@H]1O` [Compound 119, (3R,6R,8R,9R,10R)-9-(((2S,3R,4S,6R)-4-(dimethylamino)-3-hydroxy-6-methyltetrahydro-2H-pyran-2-yl)oxy)-8-methoxy-4,6,8,10,12,12-hexamethyl-3-(1-(pyridin-3-ylmethyl)azetidin-3-yl)-1-oxa-4-azacyclotridecane-11,13-dione]: the MIC in assay [1] was 4 to 32 µg/mL (≈ 6.18 to 49.5 µM); in assay [2], < 4 µg/mL; in assay [6] it was 4 to 32 µg/mL (≈ 6.18 to 49.5 µM); in assay [3], 4 to 32 µg/mL (≈ 6.18 to 49.5 µM); in assay [4], > 32 µg/mL; in assay [5], > 32 µg/mL.
For the compound `CO[C@]1(C)C[C@@H](C)CN(C)[C@@H](C2(CCN(C)CC3CC3)CC2)COC(=O)C(C)(C)C(=O)[C@H](C)[C@H]1O[C@@H]1O[C@H](C)C[C@H](N(C)C)[C@H]1O` [Compound 196], the MIC in assay [1] was > 32 µg/mL; in assay [2] it was 4 to 32 µg/mL (≈ 6.14 to 49.1 µM); in assay [3], > 32 µg/mL; in assay [4], > 32 µg/mL; in assay [5] it was > 32 µg/mL.
For `CO[C@]1(C)C[C@@H](C)CN(C)[C@H](C2CN(C(=O)[C@@H]3CCN(CC4CC4)C3)C2)COC(=O)C(C)(C)C(=O)[C@H](C)[C@H]1O[C@@H]1O[C@H](C)C[C@H](N(C)C)[C@H]1O` [Compound 145, (3R,6R,8R,9R,10R)-3-(1-((R)-1-(cyclopropylmethyl)pyrrolidine-3-carbonyl)azetidin-3-yl)-9-(((2S,3R,4S,6R)-4-(dimethylamino)-3-hydroxy-6-methyltetrahydro-2H-pyran-2-yl)oxy)-8-methoxy-4,6,8,10,12,12-hexamethyl-1-oxa-4-azacyclotridecane-11,13-dione], the MIC in assay [1] is > 32 µg/mL; in assay [2], < 4 µg/mL; in assay [6], 4 to 32 µg/mL (≈ 5.66 to 45.3 µM); in assay [3] it was 4 to 32 µg/mL (≈ 5.66 to 45.3 µM); in assay [4], > 32 µg/mL; in assay [5], > 32 µg/mL.
For the compound `CO[C@]1(C)C[C@@H](C)CN(C)[C@@H](C2(CCN(C)C(C)=O)CC2)COC(=O)C(C)(C)C(=O)[C@H](C)[C@H]1O[C@@H]1O[C@H](C)C[C@H](N(C)C)[C@H]1O` [Compound 197], the MIC in assay [1] is > 32 µg/mL; in assay [2], 4 to 32 µg/mL (≈ 6.25 to 50 µM); in assay [3], > 32 µg/mL; in assay [4], > 32 µg/mL; in assay [5], > 32 µg/mL.
On to `CCCN1CC([C@@H]2[C@@H](C)OC(=O)C(C)(C)C(=O)[C@H](C)[C@@H](O[C@@H]3O[C@H](C)C[C@H](N(C)C)[C@H]3O)[C@](C)(OC)C[C@@H](C)CN2C)C1` [Compound 136, (2R,3R,6R,8R,9R,10R)-9-(((2S,3R,4S,6R)-4-(dimethylamino)-3-hydroxy-6-methyltetrahydro-2H-pyran-2-yl)oxy)-8-methoxy-2,4,6,8,10,12,12-heptamethyl-3-(1-propylazetidin-3-yl)-1-oxa-4-azacyclotridecane-11,13-dione], for which the minimal inhibitory concentration (MIC) in assay [1] is > 32 µg/mL; in assay [2] it was 4 to 32 µg/mL (≈ 6.54 to 52.3 µM); in assay [6] it was > 32 µg/mL; in assay [3] it was > 32 µg/mL; in assay [4], > 32 µg/mL; in assay [5] it was > 32 µg/mL.
For `COCC(C)N1CC([C@@H]2COC(=O)C(C)(C)C(=O)[C@H](C)[C@@H](O[C@@H]3O[C@H](C)C[C@H](N(C)C)[C@H]3O)[C@](C)(OC)C[C@@H](C)CN2C)C1` (stereo partly drawn) [Compound 32, (3R,6R,8R,9R,10R)-9-(((2S,3R,4S,6R)-4-(dimethylamino)-3-hydroxy-6-methyltetrahydro-2H-pyran-2-yl)oxy)-8-methoxy-3-(1-(1-methoxypropan-2-yl)azetidin-3-yl)-4,6,8,10,12,12-hexamethyl-1-oxa-4-azacyclotridecane-11,13-dione], the MIC in assay [1] was > 32 µg/mL; in assay [2] it was < 4 µg/mL; in assay [6], 4 to 32 µg/mL (≈ 6.37 to 51 µM); in assay [3], 4 to 32 µg/mL (≈ 6.37 to 51 µM); in assay [4], > 32 µg/mL; in assay [5], > 32 µg/mL.
For the compound `CO[C@]1(C)C[C@@H](C)CN(C)[C@H](C2CN(CC3CCCO3)C2)COC(=O)C(C)(C)C(=O)[C@H](C)[C@H]1O[C@@H]1O[C@H](C)C[C@H](N(C)C)[C@H]1O` (stereo partly drawn) [Compound 164, (3R,6R,8R,9R,10R)-9-(((2S,3R,4S,6R)-4-(dimethylamino)-3-hydroxy-6-methyltetrahydro-2H-pyran-2-yl)oxy)-8-methoxy-4,6,8,10,12,12-hexamethyl-3-(1-((tetrahydrofuran-2-yl)methyl)azetidin-3-yl)-1-oxa-4-azacyclotridecane-11,13-dione], the MIC in assay [1] is 4 to 32 µg/mL (≈ 6.25 to 50 µM); in assay [2], < 4 µg/mL; in assay [6] it was < 4 µg/mL; in assay [3] it was 4 to 32 µg/mL (≈ 6.25 to 50 µM); in assay [4], > 32 µg/mL; in assay [5], > 32 µg/mL.
On to `CO[C@]1(C)C[C@@H](C)CN(C)[C@@H](C2CCN(C[C@@H]3COC(=O)N3)CC2)CO[C@@H](O)C(C)(C)C(=O)[C@H](C)[C@H]1O[C@@H]1O[C@H](C)C[C@H](N(C)C)[C@H]1O` [Compound 201], for which the MIC was > 32 µg/mL in assay [1]; 4 to 32 µg/mL (≈ 5.84 to 46.7 µM) in assay [2]; > 32 µg/mL in assay [3]; > 32 µg/mL in assay [4]; > 32 µg/mL in assay [5].
Take `CO[C@]1(C)C[C@@H](C)CN(C)[C@@H](C2CCN(C[C@H](CO)N(C)C)CC2)CO[C@@H](O)C(C)(C)C(=O)[C@H](C)[C@H]1O[C@@H]1O[C@H](C)C[C@H](N(C)C)[C@H]1O` [Compound 200]: the MIC in assay [1] is 4 to 32 µg/mL (≈ 5.82 to 46.6 µM); in assay [2], 4 to 32 µg/mL (≈ 5.82 to 46.6 µM); in assay [3], > 32 µg/mL; in assay [4], > 32 µg/mL; in assay [5] it was > 32 µg/mL.
On to `CO[C@]1(C)C[C@@H](C)CN(C)[C@H](C2CN(CC(=O)O)C2)COC(=O)C(C)(C)C(=O)[C@H](C)[C@H]1O[C@@H]1O[C@H](C)C[C@H](N(C)C)[C@H]1O` [Compound 203], for which the MIC in assay [1] was > 32 µg/mL; in assay [2], 4 to 32 µg/mL (≈ 6.52 to 52.1 µM); in assay [3], > 32 µg/mL; in assay [4], > 32 µg/mL; in assay [5], > 32 µg/mL.
As to `CO[C@]1(C)C[C@@H](C)CN(C)[C@](C)(C2CCN(C)CC2)COC(=O)C(C)(C)C(=O)[C@H](C)[C@H]1O[C@@H]1O[C@H](C)C[C@H](N(C)C)[C@H]1O` [Compound 198], the MIC in assay [1], in assay [2], in assay [3], in assay [4] and in assay [5] was > 32 µg/mL each time.
